Legend:
pollinosis = test: Case report: SCV-07 before specific immunotherapy of pollinosis; assay type: in vivo, human; conditions: SCV-07 perorally 1.5 mg once a day for 10 days, 15 days before SIT; season April-June 2006
Description: Patient.—P-na M. N., 45 years. Date of first consultation—October 2004. From the end of November 2004 to mid-March 2005, the patient underwent specific immunotherapy (SIT) for pollinosis, using the allergoid (“Puretal-tree”) according to the scheme: subcutaneous once a week, beginning with a single dose of the administered allergoid of 0.025 mL, the subsequent dose are escalated during the course of treatment until reaching a single dose of 0.5 mL (0.025 mL-0.05 mL, −0.1 mL-0.2 mL-0.3 mL-0.4 mL-0.5 mL), and the following does are staying on this dose. Considering the above situation, during October 2005, to increase the clinical effectiveness of SIT, under initiating or anticipatory conditions, immune stimulation—a course of the preparation “SCV-07” —was perorally administered as follows: 1.5 mg once a day daily for 10 days in a row. On completion of the “SCV-07” course, the patient, from the middle of November 2005 through mid-March 2006, underwent another course of SIT for pollinosis, using the allergoid “Puretal-tree” according to the previous scheme. The interval between the “SCV-07” course and the beginning of the SIT course for pollinosis was 15 days.

BAL cells = test: BAL white blood cells and differentials, guinea pig model; assay type: in vivo, Dunkin-Hartley guinea pigs
Description: Animals were sensitized on day 0 ip with 50 mg/kg OVA. On Days 17, 18, 19, and 20, animals received an ip injection between 8 and 10 am with PBS, SCV-07 at 1 ug/kg, or SCV-07 at 10 ug/kg (Peptide treatment). Between 8 and 10 a.m. on Day 21, animals were administered peptide 2 hours before OVA or saline (NSS) aerosol challenge. 30 min before OVA or NSS aerosol challenge each animal was injected ip with an antihistamine (6.1 mg/kg pyrilamine maleate) to prevent death due to the anaphylactic response that accompanies aerosol OVA challenge. Animals were exposed to aerosol in pairs with either 1% OVA solution or NSS for 5 min in a plexiglass chamber (22×22×29 cm) using a DeVilbiss Model 35B Ultrasonic Nebulizer. Animals were observed during the total 5 min aerosolization and comments recorded. Within 22-24 hours after challenge, animals were euthanized, bled by cardiac puncture, lavaged and lung lobes removed for measurement of cellular infiltration. At the time of OVA or NSS challenge and euthanasia, animal weights ranged from approximately 350-550 g, with the average weight approximately 420 g. This experimental protocol is similar to that used in previously published studies (Regal and Fraser, 1996; Regal et al., 2000). Animals were euthanized with pentobarbital (100-200 mg/kg), bled by cardiac puncture, and lavaged with room temperature PBS. For bronchoalveolar lavage (BAL), the trachea was cannulated and 4 volumes of PBS were introduced into the tracheal cannula and gently withdrawn. Total lavage volume was 60 ml/kg. The BAL was centrifuged to sediment the cells, and the BAL cell pellet re-suspended in 1.0 ml PBS for determination of the total number of white blood cells (WBC) recovered in the BAL of each animal. The BAL supernatant was frozen at −70 C for determination of total protein recovered in the BAL supernatant using the method of Lowry et al. (1951). Total white blood cells in BAL were counted by standard methods in a hemacytometer using Turk's solution. Differential counts were obtained from cytospin preparations of BAL cells (3×10^4 cells) stained with a modified Wrights' stain (Diff Quik, American Scientific Products, McGraw Park, Ill.). Four hundred cells were counted and identified as eosinophils, neutrophils, or mononuclear cells. […] EPO activity from the homogenized lung after lavage was expressed as total OD/min from the left caudal lobe. MPO activity from the homogenized lung after lavage was expressed as total units of enzyme activity from the right caudal lobe. […] OD412 of the BAL supernatant was also determined to estimate the number of RBCS that were lysed during the lavage procedure and prior to re-suspension of the cells for counting. […]

OVA specific IgG1 = OVA specific IgG1 in serum by ELISA, guinea pig model; assay type: in vivo, Dunkin-Hartley guinea pigs; conditions: 1 or 10 ug/kg ip days 17-21
Description: Animals were sensitized on day 0 ip with 50 mg/kg OVA. On Days 17, 18, 19, and 20, animals received an ip injection between 8 and 10 am with PBS, SCV-07 at 1 ug/kg, or SCV-07 at 10 ug/kg (Peptide treatment). Between 8 and 10 a.m. on Day 21, animals were administered peptide 2 hours before OVA or saline (NSS) aerosol challenge. 30 min before OVA or NSS aerosol challenge each animal was injected ip with an antihistamine (6.1 mg/kg pyrilamine maleate) to prevent death due to the anaphylactic response that accompanies aerosol OVA challenge. Animals were exposed to aerosol in pairs with either 1% OVA solution or NSS for 5 min in a plexiglass chamber (22×22×29 cm) using a DeVilbiss Model 35B Ultrasonic Nebulizer. Animals were observed during the total 5 min aerosolization and comments recorded. Within 22-24 hours after challenge, animals were euthanized, bled by cardiac puncture, lavaged and lung lobes removed for measurement of cellular infiltration. At the time of OVA or NSS challenge and euthanasia, animal weights ranged from approximately 350-550 g, with the average weight approximately 420 g. […]
OVA specific IgG1 in serum was determined by ELISA as previously described (Fraser et al., 1998; Regal et al., 2000). The data were expressed as the concentration of OVA specific IgG1 in the sample divided by the concentration of OVA specific IgG1 in the standard, defined as 1. […]

## N[C@H](CCC(=O)N[C@@H](Cc1c[nH]c2ccccc12)C(=O)O)C(=O)O [SCV-07, γ-D-glutamyl-L-tryptophan]
pollinosis
  Seasonal rhinoconjunctival symptoms after SIT preceded by SCV-07 course: seasonal rhinoconjunctival symptoms were virtually absent
BAL cells; 1 ug/kg, ANOVA contrast vs PBS treatment
  Change in BAL neutrophils from NSS to OVA: differed
BAL cells; NSS aerosol, 1 or 10 ug/kg
  Composition of cells in the BAL of control animals challenged with NSS: did not significantly affect
BAL cells; OVA aerosol challenge
  Total eosinophils in the BAL: did not change
BAL cells; OVA aerosol challenge, not statistically significant
  % eosinophils in the BAL: tended to decrease
OVA specific IgG1
  Concentration of OVA specific IgG1 antibody in the serum: did not significantly affect
